One assay deals with MDA-MB-468. The assay can be described thus: Growth inhibition of human MDA-MB-468 cells assessed as cell growth at 0.1 uM incubated for 48 hrs by sulforhodamine B assay relative to control. It counts as functional. The note with it: MDA-MB-468, 48 h, read-out: Activity. On the technique in general: The SRB assay estimates cell density from bound dye.
The subject of assay [1] is SF-268. Nature of the assay: Growth inhibition of human SF268 cells assessed as cell growth at 0.5 uM incubated for 48 hrs by sulforhodamine B assay relative to control. It counts as functional. As to conditions: SF-268, 48 h, read-out: Activity.
Assay [2] deals with SNB-75. The assay can be described thus: Growth inhibition of human SNB75 cells assessed as cell growth at 0.5 uM incubated for 48 hrs by sulforhodamine B assay relative to control. It counts as functional. As to conditions: SNB-75, 48 h, read-out: Activity.
The test system of assay [3] is HCT-116. The assay can be described thus: Growth inhibition of human HCT116 cells assessed as cell growth at 0.05 uM incubated for 48 hrs by sulforhodamine B assay relative to control. It counts as functional. As to conditions: HCT-116, 48 h, read-out: Activity.
Assay [4] concerns HCT-116. Nature of the assay: Growth inhibition of human HCT116 cells assessed as cell growth at 0.005 uM incubated for 48 hrs by sulforhodamine B assay relative to control. It is filed as functional. As to conditions: HCT-116, 48 h, read-out: Activity.
The next assay relates to MDA-MB-231. Nature of the assay: Growth inhibition of human MDA-MB-231 cells assessed as cell growth at 0.5 uM incubated for 48 hrs by sulforhodamine B assay relative to control. The note with it: MDA-MB-231, 48 h, read-out: Activity. It counts as functional.
Assay [5] concerns PC-3. Nature of the assay: Growth inhibition of human PC3 cells assessed as cell growth at 5 uM incubated for 48 hrs by sulforhodamine B assay relative to control. As to conditions: PC-3, 48 h, read-out: Activity. It is filed as functional.
For the next assay, the system named is COLO 205. Nature of the assay: Growth inhibition of human COLO205 cells assessed as cell growth at 5 uM incubated for 48 hrs by sulforhodamine B assay relative to control. It is filed as functional. As to conditions: COLO 205, 48 h, read-out: Activity.
Another assay concerns IGROV-1. The assay can be described thus: Growth inhibition of human IGROV1 cells assessed as cell growth at 0.5 uM incubated for 48 hrs by sulforhodamine B assay relative to control. It counts as functional. The note with it: IGROV-1, 48 h, read-out: Activity.
A further assay relates to Malme-3M. Nature of the assay: Growth inhibition of human MALME-3M cells assessed as cell growth at 0.005 uM incubated for 48 hrs by sulforhodamine B assay relative to control. As to conditions: read-out: Activity. It counts as functional.
The subject of a further assay is TK-10. The assay can be described thus: Growth inhibition of human TK10 cells assessed as cell growth at 0.05 uM incubated for 48 hrs by sulforhodamine B assay relative to control. The note with it: TK-10, 48 h, read-out: Activity. It is filed as functional.
The subject of the next assay is SK-MEL-28. Nature of the assay: Growth inhibition of human SK-MEL-28 cells assessed as cell growth at 50 uM incubated for 48 hrs by sulforhodamine B assay relative to control. It counts as functional. The note with it: SK-MEL-28, 48 h, read-out: Activity.
Assay [6] concerns SF-539. The assay can be described thus: Growth inhibition of human SF539 cells assessed as cell growth at 5 uM incubated for 48 hrs by sulforhodamine B assay relative to control. It counts as functional. The note with it: SF-539, 48 h, read-out: Activity.
The subject of assay [7] is NCI-H23. The assay can be described thus: Growth inhibition of human NCI-H23 cells assessed as cell growth at 0.005 uM incubated for 48 hrs by sulforhodamine B assay relative to control. It is filed as functional. As to conditions: NCI-H23, 48 h, read-out: Activity.
The subject of a further assay is HOP-92. The assay can be described thus: Growth inhibition of human HOP92 cells assessed as cell growth at 0.05 uM incubated for 48 hrs by sulforhodamine B assay relative to control. It is filed as functional. As to conditions: HOP-92, 48 h, read-out: Activity.
Assay [8] concerns NCI-H23. The assay can be described thus: Growth inhibition of human NCI-H23 cells assessed as cell growth at 5 uM incubated for 48 hrs by sulforhodamine B assay relative to control. As to conditions: NCI-H23, 48 h, read-out: Activity. It counts as functional.
For assay [9], the system named is SF-268. Nature of the assay: Growth inhibition of human SF268 cells assessed as cell growth at 5 uM incubated for 48 hrs by sulforhodamine B assay relative to control. The note with it: SF-268, 48 h, read-out: Activity. It is filed as functional.
Assay [10] concerns SF-539. Nature of the assay: Growth inhibition of human SF539 cells assessed as cell growth at 50 uM incubated for 48 hrs by sulforhodamine B assay relative to control. It is filed as functional. The note with it: SF-539, 48 h, read-out: Activity.
The test system of the next assay is DU-145. Nature of the assay: Growth inhibition of human DU145 cells assessed as cell growth at 0.005 uM incubated for 48 hrs by sulforhodamine B assay relative to control. As to conditions: DU-145, 48 h, read-out: Activity. It counts as functional.
Assay [11] relates to SNB-75. The assay can be described thus: Growth inhibition of human SNB75 cells assessed as cell growth at 0.05 uM incubated for 48 hrs by sulforhodamine B assay relative to control. As to conditions: SNB-75, 48 h, read-out: Activity. It counts as functional.
The subject of another assay is 786-0. Nature of the assay: Growth inhibition of human 786-0 cells assessed as cell growth at 5 uM incubated for 48 hrs by sulforhodamine B assay relative to control. The note with it: 786-0, 48 h, read-out: Activity. It is filed as functional.
A further assay concerns SK-MEL-5. The assay can be described thus: Growth inhibition of human SK-MEL-5 cells assessed as cell growth at 0.5 uM incubated for 48 hrs by sulforhodamine B assay relative to control. It counts as functional. The note with it: SK-MEL-5, 48 h, read-out: Activity.
Assay [12] concerns PC-3. The assay can be described thus: Growth inhibition of human PC3 cells assessed as cell growth at 0.5 uM incubated for 48 hrs by sulforhodamine B assay relative to control. It is filed as functional. The note with it: PC-3, 48 h, read-out: Activity.
A further assay relates to OVCAR-8. The assay can be described thus: Growth inhibition of human OVCAR8 cells assessed as cell growth at 50 uM incubated for 48 hrs by sulforhodamine B assay relative to control. It is filed as functional. The note with it: OVCAR-8, 48 h, read-out: Activity.
In the next assay the test system is HOP-62. Nature of the assay: Growth inhibition of human HOP62 cells assessed as cell growth at 0.05 uM incubated for 48 hrs by sulforhodamine B assay relative to control. It is filed as functional. As to conditions: HOP-62, 48 h, read-out: Activity.
The next assay relates to SF-295. Nature of the assay: Growth inhibition of human SF295 cells assessed as cell growth at 50 uM incubated for 48 hrs by sulforhodamine B assay relative to control. It is filed as functional. As to conditions: SF-295, 48 h, read-out: Activity.
The test system of the next assay is NCI-H522. Nature of the assay: Growth inhibition of human NCI-H522 cells assessed as cell growth at 0.05 uM incubated for 48 hrs by sulforhodamine B assay relative to control. It is filed as functional. The note with it: NCI-H522, 48 h, read-out: Activity.
Assay [13] concerns LOX IMVI. The assay can be described thus: Growth inhibition of human LOXIMVI cells assessed as cell growth at 5 uM incubated for 48 hrs by sulforhodamine B assay relative to control. It is filed as functional. As to conditions: read-out: Activity.
Assay [14] relates to LOX IMVI. The assay can be described thus: Growth inhibition of human LOXIMVI cells assessed as cell growth at 3 uM incubated for 48 hrs by sulforhodamine B assay relative to control. The note with it: read-out: Activity. It is filed as functional.
The target of assay [15] is Dual specificity mitogen-activated protein kinase kinase 1 (Homo sapiens) (UniProt Q02750). Nature of the assay: Inhibition of human MEK1 at 10 uM using ERK2 as substrate in presence of [33P]ATP by Hotspot assay relative to control.
The target in assay [16] is Platelet-derived growth factor receptor beta (Homo sapiens) (UniProt P09619). The assay can be described thus: Inhibition of human PDGFRbeta at 10 uM using poly[Glu:Tyr] (4:1) as substrate in presence of [33P]ATP by Hotspot assay relative to control.
For assay [17], the target named is Receptor-type tyrosine-protein kinase FLT3 (Homo sapiens) (UniProt P36888). The assay can be described thus: Inhibition of human FLT3 at 10 uM using EAIYAAPFAKKK as substrate in presence of [33P]ATP by Hotspot assay relative to control.
Assay [18] deals with Serine/threonine-protein kinase B-raf (Homo sapiens, UniProt P15056). The assay can be described thus: Inhibition of human BRAF using MEK1 as substrate in presence of [33P]ATP by Hotspot assay.

The record followed here is ChEMBL document CHEMBL3994622, “Design and synthesis of new RAF kinase-inhibiting antiproliferative quinoline derivatives. Part 2: Diarylurea derivatives” (Eur J Med Chem, 2017).

Chain of Platelet-derived growth factor receptor beta (Homo sapiens) (P09619 whole entry): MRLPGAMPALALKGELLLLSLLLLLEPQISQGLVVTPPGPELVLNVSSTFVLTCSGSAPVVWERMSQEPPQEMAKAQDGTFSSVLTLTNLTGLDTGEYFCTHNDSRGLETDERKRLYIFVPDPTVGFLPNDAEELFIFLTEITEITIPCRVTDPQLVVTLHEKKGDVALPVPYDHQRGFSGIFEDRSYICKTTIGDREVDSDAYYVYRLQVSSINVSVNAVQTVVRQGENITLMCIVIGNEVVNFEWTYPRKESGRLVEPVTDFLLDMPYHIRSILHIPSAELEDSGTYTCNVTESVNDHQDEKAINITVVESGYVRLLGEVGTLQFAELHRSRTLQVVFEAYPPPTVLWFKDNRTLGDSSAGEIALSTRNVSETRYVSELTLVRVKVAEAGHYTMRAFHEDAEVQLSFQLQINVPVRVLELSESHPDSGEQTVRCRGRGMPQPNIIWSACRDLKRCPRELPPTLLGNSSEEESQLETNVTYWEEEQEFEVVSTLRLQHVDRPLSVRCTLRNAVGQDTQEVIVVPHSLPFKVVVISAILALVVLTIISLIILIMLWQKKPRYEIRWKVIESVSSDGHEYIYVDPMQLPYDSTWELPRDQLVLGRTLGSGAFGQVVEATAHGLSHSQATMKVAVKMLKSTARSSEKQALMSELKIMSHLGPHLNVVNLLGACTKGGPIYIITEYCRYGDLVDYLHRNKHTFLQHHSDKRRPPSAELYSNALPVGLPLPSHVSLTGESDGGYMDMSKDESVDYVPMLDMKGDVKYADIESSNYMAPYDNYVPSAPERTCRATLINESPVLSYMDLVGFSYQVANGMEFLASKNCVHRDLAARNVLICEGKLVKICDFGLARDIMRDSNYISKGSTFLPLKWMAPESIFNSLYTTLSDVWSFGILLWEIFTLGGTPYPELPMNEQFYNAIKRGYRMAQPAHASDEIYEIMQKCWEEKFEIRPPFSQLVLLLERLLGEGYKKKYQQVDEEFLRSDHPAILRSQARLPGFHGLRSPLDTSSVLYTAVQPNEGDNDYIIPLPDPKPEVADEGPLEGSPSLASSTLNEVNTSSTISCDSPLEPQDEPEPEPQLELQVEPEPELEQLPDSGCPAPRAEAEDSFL
Chain of Serine/threonine-protein kinase B-raf (P15056 whole entry): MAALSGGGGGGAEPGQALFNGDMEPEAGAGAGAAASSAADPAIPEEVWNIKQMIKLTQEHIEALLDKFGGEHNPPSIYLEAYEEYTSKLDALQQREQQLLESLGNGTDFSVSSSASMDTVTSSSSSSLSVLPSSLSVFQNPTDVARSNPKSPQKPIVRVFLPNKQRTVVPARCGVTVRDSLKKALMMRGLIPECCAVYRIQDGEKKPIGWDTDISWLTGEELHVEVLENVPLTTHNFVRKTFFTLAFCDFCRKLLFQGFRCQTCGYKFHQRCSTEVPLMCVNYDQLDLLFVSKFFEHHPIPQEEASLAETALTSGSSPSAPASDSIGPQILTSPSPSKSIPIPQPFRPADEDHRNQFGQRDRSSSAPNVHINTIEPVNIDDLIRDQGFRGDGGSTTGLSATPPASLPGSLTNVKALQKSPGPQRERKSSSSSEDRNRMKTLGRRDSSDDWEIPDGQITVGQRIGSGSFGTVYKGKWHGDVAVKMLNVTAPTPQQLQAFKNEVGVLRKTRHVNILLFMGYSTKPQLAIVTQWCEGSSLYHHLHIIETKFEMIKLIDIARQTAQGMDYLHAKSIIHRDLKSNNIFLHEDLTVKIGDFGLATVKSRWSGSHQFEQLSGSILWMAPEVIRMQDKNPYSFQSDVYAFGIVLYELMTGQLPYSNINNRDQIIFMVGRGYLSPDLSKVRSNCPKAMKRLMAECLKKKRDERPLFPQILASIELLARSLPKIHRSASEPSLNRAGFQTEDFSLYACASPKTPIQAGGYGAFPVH
Chain of Dual specificity mitogen-activated protein kinase kinase 1 (Homo sapiens) (Q02750 whole entry): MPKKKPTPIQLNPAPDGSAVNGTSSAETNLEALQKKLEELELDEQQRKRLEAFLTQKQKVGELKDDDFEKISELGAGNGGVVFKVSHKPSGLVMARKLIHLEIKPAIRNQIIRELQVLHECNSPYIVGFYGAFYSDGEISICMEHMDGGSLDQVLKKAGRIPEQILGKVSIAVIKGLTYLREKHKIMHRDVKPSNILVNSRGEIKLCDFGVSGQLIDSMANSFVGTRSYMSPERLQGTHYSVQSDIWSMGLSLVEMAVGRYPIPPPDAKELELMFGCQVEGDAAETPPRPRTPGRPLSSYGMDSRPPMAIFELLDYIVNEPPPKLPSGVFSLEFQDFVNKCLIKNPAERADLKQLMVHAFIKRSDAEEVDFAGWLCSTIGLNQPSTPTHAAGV
Chain of Receptor-type tyrosine-protein kinase FLT3 (Homo sapiens) (P36888 whole entry): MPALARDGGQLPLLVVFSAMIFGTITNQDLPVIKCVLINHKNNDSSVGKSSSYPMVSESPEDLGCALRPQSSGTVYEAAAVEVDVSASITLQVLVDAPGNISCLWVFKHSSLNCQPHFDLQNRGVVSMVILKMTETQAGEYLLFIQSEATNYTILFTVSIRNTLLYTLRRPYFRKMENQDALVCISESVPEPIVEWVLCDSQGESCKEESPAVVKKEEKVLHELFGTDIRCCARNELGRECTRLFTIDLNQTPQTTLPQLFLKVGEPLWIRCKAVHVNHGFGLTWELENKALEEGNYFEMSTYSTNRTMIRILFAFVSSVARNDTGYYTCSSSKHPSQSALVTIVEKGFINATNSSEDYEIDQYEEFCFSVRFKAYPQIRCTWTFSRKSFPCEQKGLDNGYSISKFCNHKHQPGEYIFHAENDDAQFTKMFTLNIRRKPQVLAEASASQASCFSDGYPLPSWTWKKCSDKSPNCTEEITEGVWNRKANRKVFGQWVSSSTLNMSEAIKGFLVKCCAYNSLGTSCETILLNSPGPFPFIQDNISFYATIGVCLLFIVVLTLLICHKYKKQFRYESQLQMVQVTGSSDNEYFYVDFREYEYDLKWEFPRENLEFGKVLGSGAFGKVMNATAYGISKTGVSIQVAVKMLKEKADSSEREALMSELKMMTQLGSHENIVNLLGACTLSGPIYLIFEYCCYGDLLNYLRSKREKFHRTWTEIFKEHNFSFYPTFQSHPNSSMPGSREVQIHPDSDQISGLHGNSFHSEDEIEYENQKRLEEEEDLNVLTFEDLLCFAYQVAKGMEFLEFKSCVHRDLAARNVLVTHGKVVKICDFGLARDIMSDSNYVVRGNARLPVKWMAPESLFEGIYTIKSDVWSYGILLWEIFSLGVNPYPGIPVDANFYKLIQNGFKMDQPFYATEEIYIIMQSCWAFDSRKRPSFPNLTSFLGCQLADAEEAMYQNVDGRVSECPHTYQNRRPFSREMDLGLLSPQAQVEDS

As to `COc1cc2cc(Oc3ccc(NC(=O)Nc4cc(C(F)(F)F)cc(C(F)(F)F)c4)cc3)c(C)nc2cc1OC`, the growth at 0.1 µM in the assay with MDA-MB-468 stood at 104%.

Take `COc1cc2cc(Oc3ccc(NC(=O)Nc4cccc(C(F)(F)F)c4)cc3)c(C)nc2cc1OC`: the growth at 0.5 µM in the assay on SF-268 [1] came out at 96%; in the assay on SNB-75 [2], 77%; in the assay with MDA-MB-231, 81%; in the assay on IGROV-1 it was 113%; with SK-MEL-5, 93%; in the assay with PC-3 [12] it was 88%. Also, the growth at 0.05 µM with HCT-116 [3] was 93%; in the assay with TK-10, 95%; in the assay with HOP-92, 96%; in the assay with SNB-75 [11] it was 99%; in the assay with HOP-62 it was 95%; in the assay on NCI-H522 it was 92%. The growth at 0.005 µM in the assay on HCT-116 [4] was 100%; with Malme-3M it was 94%; in the assay with NCI-H23 [7] it was 96%; in the assay with DU-145, 103%. Further, the growth at 5 µM with PC-3 [5] is 3%; in the assay on COLO 205 it was -48%; in the assay on SF-539 [6] it was 26%; with NCI-H23 [8], 9%; in the assay with SF-268 [9] it was 31%; in the assay with 786-0 it was 12%. The growth at 5 µM in the assay with LOX IMVI [13] was found to be 14%. For the same molecule, the growth at 50 µM in the assay with SK-MEL-28 was -74%; in the assay on SF-539 [10], -82%; in the assay with OVCAR-8, -90%; in the assay on SF-295, -63%.

For orientation: inhibition means the drop in the measured response relative to a control, in per cent. As usually defined, the IC50 is the concentration needed to halve the response being measured. For the molecule `COc1cc2cc(Oc3ccc(NC(=O)Nc4ccc(Cl)c(C(F)(F)F)c4)cc3)c(C)nc2cc1OC`, the growth at 3 µM with LOX IMVI [14] came out at 12%. Also, the results for the inhibition in assay [15], in assay [16] and in [17] were -0.258%, 29.5% and 33.5%, respectively. Further, in [18], the IC50 is 1.33 µM.
